Reference: patent US9809562B2, “NAT10 modulators for treating or preventing laminopathies, aging and cancer” (CAMBRIDGE ENTERPRISE LIMITED, priority 2014, dated 2017)
Structures can show the parent of a compound that is named as a salt.

Experiments:
[1] = tested on: microtubule network of cells; assay: Microtubule network by immunofluorescence of α-Tubulin; format: cell-based
Experimental: Cells were washed with PBS and fixed for 20 minutes with 2% PFA in PBS. Cells were permeabilised for 5 minutes with PBS/0.2% Triton X-100, and blocked with PBS/0.2% Tween 20 (PBS-T) containing 5% BSA. Coverslips were incubated for 1 hour with primary antibodies and for 30 minutes with appropriate secondary antibodies coupled to Alexa Fluor 488 or 594 fluorophores (Life Technologies), before being incubated with 2 μg/ml DAPI. Pictures were acquired with a FluoView 1000 confocal microscope (Olympus). For high resolution imaging, z-stacks were acquired with a Deltavision PersonalDV (Applied Precision, 1024×1024 CoolSNAP HQ2 camera, z-stack of 0.2 μm interval) or with a Deltavision OMX V3 in conventional mode (Applied Precision, 512×512 Cascade II cameras (Photometrics), z-stack of 0.125 μm interval) both equipped with a 100× UPlanSApo/1.40 oil objective (Olympus) and controlled with SoftWoRx software (Applied Precision). Deconvolutions were then performed with SoftWoRx (Applied Precision) in conservative mode. The different channels were acquired sequentially.

[2] = tested on: siLMNA cells and HGPS cells; assay: Microtubules regrowth assay; format: cell-based, human; details: t=15 minutes after cold depolymerization, 5 to 10 μM Remodelin 16 hours
Experimental: 48 hours after siRNA transfections, microtubules were depolymerized by cold treatment at 4° C. for 1 hour in cells pre-treated or not with 5 to 10 μM Remodelin for 16 hours. Cold medium was replaced by pre-warmed medium and cells were incubated at 37° C. for 5 or 15 minutes to allow microtubules nucleation and anchorage respectively. Cells were fixed in PFA and stained with anti α-Tubulin antibody as described in the immunofluorescence procedure.

[3] = biological target: T1, NAT10 purified from HEK293 cells (Homo sapiens, UniProt Q9H0A0); assay: Circular dichroism spectroscopy of purified NAT10; format: binding; details: titration, 10 μM FLAG-NAT10, concentration-dependent
T1 construct: made in house; host or cells: HEK293 (transient transfection, anti-FLAG immunopurification, elution with triple-Flag peptide)
T1 sequence (Q9H0A0 1-1025): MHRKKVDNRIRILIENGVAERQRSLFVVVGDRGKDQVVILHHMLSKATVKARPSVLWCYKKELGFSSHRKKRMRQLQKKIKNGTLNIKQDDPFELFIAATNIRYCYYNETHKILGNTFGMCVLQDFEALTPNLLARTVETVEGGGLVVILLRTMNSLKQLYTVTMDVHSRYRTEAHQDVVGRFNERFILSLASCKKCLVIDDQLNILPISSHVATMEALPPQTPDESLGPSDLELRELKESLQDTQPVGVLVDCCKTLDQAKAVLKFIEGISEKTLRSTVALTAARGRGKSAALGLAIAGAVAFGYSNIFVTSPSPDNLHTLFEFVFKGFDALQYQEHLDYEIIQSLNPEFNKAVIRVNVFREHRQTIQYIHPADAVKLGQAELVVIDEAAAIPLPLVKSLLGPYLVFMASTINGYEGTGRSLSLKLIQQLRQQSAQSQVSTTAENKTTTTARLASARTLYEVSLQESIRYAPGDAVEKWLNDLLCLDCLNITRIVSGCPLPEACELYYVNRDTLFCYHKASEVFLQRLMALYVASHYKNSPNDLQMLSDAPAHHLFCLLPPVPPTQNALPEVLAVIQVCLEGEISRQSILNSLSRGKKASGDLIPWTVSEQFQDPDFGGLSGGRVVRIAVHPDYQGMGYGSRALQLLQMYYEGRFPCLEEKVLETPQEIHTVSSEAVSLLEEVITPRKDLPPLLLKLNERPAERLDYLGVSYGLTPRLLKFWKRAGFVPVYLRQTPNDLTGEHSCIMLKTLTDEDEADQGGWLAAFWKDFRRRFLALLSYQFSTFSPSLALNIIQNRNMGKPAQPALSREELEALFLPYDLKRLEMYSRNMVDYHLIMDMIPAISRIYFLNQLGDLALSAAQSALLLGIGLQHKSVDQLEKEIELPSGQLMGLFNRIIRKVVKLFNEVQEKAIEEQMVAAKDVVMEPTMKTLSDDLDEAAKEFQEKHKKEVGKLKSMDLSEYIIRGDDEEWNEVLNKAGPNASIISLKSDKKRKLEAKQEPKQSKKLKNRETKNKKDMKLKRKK
Experimental: HEK293 cells were transiently transfected with NAT10 constructs and harvested after 48 hours in PBS. Cells were lysed for 5 minutes at room temperature in IP lysis buffer (20 mM Tris pH 7.5, 40 mM NaCl, 2 mM MgCl2, 0.5% NP-40) freshly supplemented with 50 U/ml benzonase and EDTA-free protease inhibitor cocktail (Roche). After this initial lysis step, NaCl concentration was adjusted to 450 mM and samples were incubated at 4° C. with rotation. Lysates were clarified by centrifugation (13,200 rpm, 20 minutes at 4° C.), and after recovery NaCl concentration was equilibrated to 150 mM. Lysates were used for immunoprecipitation reaction in IP buffer (25 mM Tris pH 7.5, 150 mM NaCl, 1.5 mM DTT, 10% glycerol, 0.5% NP-40) supplemented with protease inhibitors. Target proteins were captured with anti-FLAG antibody (M2, Sigma-Aldrich) coupled to protein A/G-Dynabeads (Life Sciences). Complexes were washed with IP buffer containing incrementally increasing amounts of NaCl (250 mM, 500 mM, and 1M). Following this, the immuno-complexes were washed in TBS containing gradually decreasing amounts on NaCl (1M, 500 mM, 250 mM, and 150 mM). […]
CD experiments were performed using a Chirascan Circular Dichroism Spectrophotometer (Applied Photophysics, UK). […] CD scans were recorded at 25° C. over the wavelength range of 180 to 350 nm with a 1 second response time, 1 nm pitch and 1.5-nm bandwidth. […]

Row | SMILES | microtubule network organization [1] | anchorage of microtubules to centrosomes [2] | NAT10 conformation, absolute molar ellipticity at 210 nm [3]
1 | N#Cc1ccc(-c2csc(NN=C3CCCC3)n2)cc1 [Compound 1, 4-(4-Cyanophenyl)-2-(2-cyclopentylidenehydrazinyl)thiazole] | striking reorganization | anchorage of microtubules to centrosomes was clearly affected | –
2 | Clc1ccc(-c2csc(NN=C3CCCC3)n2)cc1 [Compound 2, 4-(4-Chlorophenyl)-2-(2-cyclopentylidenehydrazinyl)thiazole Hydrochloride Salt] | – | – | clear increase in the absolute molar ellipticity
